# Data: ChEMBL document CHEMBL4190198, “Celastrofurans A-G: Dihydro-β-agarofurans from the Australian Rainforest Vine Celastrus subspicata and Their Inhibitory Effect on Leucine Transport in Prostate Cancer Cells” (J Nat Prod, 2017)
# Assay: Inhibition of L-type amino acid transporter in human LNCAP cells assessed as reduction in [3H]-L-Leucine uptake after 15 mins by liquid scintillation counting method
# Format: cell-based
row,IC50,SMILES
1,34.5 µM,CC(=O)O[C@@H]1C[C@@H](C)[C@@]23C[C@@H](C[C@H](OC(=O)c4ccccc4)[C@]2(C)[C@H]1OC(=O)c1ccoc1)C(C)(C)O3
2,19.7 µM,C[C@@H]1CC[C@H](OC(=O)c2ccoc2)[C@@]2(C)[C@@H](OC(=O)c3ccccc3)C[C@@H]3C[C@]12OC3(C)C
3,98.9 µM,CC(=O)O[C@@H]1C[C@@H](C)[C@@]23C[C@@H]([C@@H](O)[C@H](OC(=O)c4ccccc4)[C@]2(C)[C@H]1OC(=O)c1ccoc1)C(C)(C)O3
4,15.2 µM,CC(=O)O[C@@H]1[C@@H]2C[C@]3(OC2(C)C)[C@H](C)C[C@@H](OC(C)=O)[C@H](OC(=O)c2ccoc2)[C@@]3(C)[C@H]1OC(=O)c1ccccc1
5,7 µM,CC(=O)O[C@@H]1C[C@@H](C)[C@@]23C[C@@H](C[C@H](OC(=O)c4ccccc4)[C@]2(C)[C@H]1OC(=O)c1ccccc1)C(C)(C)O3
6,27.6 µM,C[C@@H]1CC[C@H](OC(=O)c2ccccc2)[C@@]2(C)[C@@H](OC(=O)c3ccccc3)C[C@@H]3C[C@]12OC3(C)C
7,13.4 µM,CC(=O)O[C@@H]1C[C@@H](C)[C@@]23C[C@@H](C(=O)[C@H](OC(=O)c4ccccc4)[C@]2(C)[C@H]1OC(=O)c1ccoc1)C(C)(C)O3
8,75.3 µM,CC(=O)O[C@@H]1C[C@@H](C)[C@@]23C[C@@H](C[C@H](OC(=O)c4ccoc4)[C@]2(C)[C@H]1OC(=O)c1ccoc1)C(C)(C)O3
9,82.3 µM,CC(=O)O[C@@H]1C[C@@H](C)[C@@]23C[C@@H]([C@@H](O)[C@H](OC(=O)c4ccccc4)[C@]2(C)[C@H]1OC(=O)c1ccccc1)C(C)(C)O3
